Source: patent US11382919B2 (priority 2017, dated 2022)

Assays:
PLSCR1 = test: Ionomycin activation of PLSCR1 (microscopy, co-immunoprecipitation/anti-phosphotyrosine blot); assay type: cell-based, human; details: CaSki cells; 1 μM ionomycin; 15 minutes; immunoblotting
Procedure: (§1) FIG. 9A-9E. Ionomycin activates phospholipid scramblase leading to externalization of phosphatidylserines and Akt. (A). CaSki cells were treated with ionomycin (1 μM), HSV-2(G) (MOI 5 pfu/cell) or DMSO (0.1%) for 15 minutes and then fixed and stained with antibodies to PLSCR1 (polyclonal rabbit and Alexa 555, red), PtdS (monoclonal antibody and Alexa555, red), or Akt (polyclonal rabbit and secondary Alexa488, green) as indicated. Nuclei were stained blue with DAPI. Images are representative of results obtained from 2-3 independent experiments; bar=10 μm. Five fields were scanned and mean fluorescence intensity (MFI) per cell calculated using ImageJ software (NIH); results are mean+SEM and the asterisks indicate significant differences by ANOVA compared to DMSO control treated cells. (B). CaSki cells were treated as in A for 15 minutes and then cell lysates were harvested, incubated with a goat anti-PLSCR1 antibody and immune complexes precipitated with protein G-agarose and analyzed by Western blotting with a mouse anti-phosphotyrosine mAb (PY20) or mouse anti-PLSCR1 Ab. […] (C). […] Cell surface proteins were biotinylated and precipitated with streptavidin magnetic beads and the pellet analyzed by immunoblotting with rabbit anti-pAktThr^308 or mouse anti-pAktS^473 1 Abs. In parallel, cellular lysates were analyzed by immunoblotting for total cellular Akt (rabbit polyclonal Ab). […]

Akt = test: Ionomycin-induced Akt phosphorylation (biotinylation of cell surface proteins, immunoblot); assay type: cell-based, human; details: CaSki cells; 1 μM ionomycin; 5 or 15 minutes; immunoblotting
Procedure: as §1

CaSki and HaCAT cells = details: 3 independent experiments, FIG. 13
HSV-1 = details: sporadic fatal encephalitis; optimal intravenous acyclovir therapy; cited from earlier work
[1] = system: phosphatidylserines (PtdS), Akt, PLSCR1 at the outer leaflet of the plasma membrane; test: Confocal imaging of HSV-induced externalization of PtdS, Akt and PLSCR1 in non-permeabilized cells; assay type: cell-based, human
HSV-2(G) = test: Viral plaque assay with HSV-2(G); assay type: cell-based; details: 5 μM R5421 pretreatment, drug added back to overlay, plaques 48 h post-infection
HSV-1(VP26GFP) = assay type: cell-based; details: Vk2E6/E7 cells, R5421 pretreatment
HSV-2(333ZAG) = assay type: cell-based; details: Vk2E6/E7 cells, R5421 pretreatment

C[C@H](CCC(=O)O)C[C@H](C)C[C@H](C)C(=O)/C=C(\O)[C@H](C)C[C@H](C)C/C=C/[C@@H](C)[C@@H](O)[C@@H](C)[C@@H](O)C[C@@H]1CC[C@@](C)([C@H]2CC[C@@](C)([C@@H](C)O)O2)O1 [ionomycin]
phosphorylated PLSCR1 (PLSCR1): an increase in phosphorylated PLSCR1
phosphorylated Akt (Akt): phosphorylated Akt (both at the threonine 308 and serine 473 sites)

Nonoxynol-9 [N9]
cytotoxicity, cell viability as percentage of control (CaSki and HaCAT cells): kills cells

Nc1nc2c(ncn2COCCO)c(=O)[nH]1 [acyclovir, 9-[2-hydroxymethyl]guanine]
mortality (HSV-1): 14-19%
survivors who resume a normal lifestyle (HSV-1): < 50%

CC(=O)OCOC(=O)CN(CC(=O)OCOC(C)=O)c1ccccc1OCCOc1ccccc1N(CC(=O)OCOC(C)=O)CC(=O)OCOC(C)=O [BAPTA-AM]
number of cells with detectable PtdS, Akt, or PLSCR1 at the outer leaflet ([1]; 100 μM pretreatment, CaSki, […]): significantly reduced

O=C(O)C(=O)O [R5421, ethanedioic acid]
reduction of HSV-2 plaque formation relative to DMSO treated controls (HSV-2(G); CaSki cells): 88±7%
reduction of HSV-2 plaque formation relative to DMSO treated controls (HSV-2(G); HaCAT cells): 71.7±7%
reduction of HSV-2 plaque formation relative to DMSO treated controls (HSV-2(G); VK2E6/E7 cells): 95±6%
PtdS and Akt externalization [1]: prevented PtdS and Akt externalization
viral induced externalization of PtdS ([1]; CaSki cells, 5 μM R5421 15 min pretreatment, […]): prevented the viral induced externalization of PtdS
PtdS and Akt at the outer leaflet ([1]; R5421 added 30 min pi, CaSki, […]): persistence of PtdS and Akt at the outer leaflet for up to 4 h pi
infection, percentage of GFP positive cells 16 h pi (HSV-1(VP26GFP)): reduced
infection, percentage of GFP positive cells 16 h pi (HSV-2(333ZAG)): reduced
